Test results: patent US20240025919A1, “AZA-TETRACYCLIC OXAZEPINE COMPOUNDS AND USES THEREOF” (Genentech, Inc., priority 2022, published 2024)
Like-named read-outs stand apart in the source and are kept apart here.

Key:
KRAS G12D = KRAS G12D (Homo sapiens (Human), UniProt P01116, G12D); test: KRAS G12D LoEnz Biochemical Assay, BODIPY-GDP Exchange TR-FRET (SOS1-mediated nucleotide exchange); conditions: read-out: KRas (G12D) GDP HTRF IC50
KRAS WT = KRAS WT (Homo sapiens (Human), UniProt P01116); test: KRAS WT Biochemical Assay, BODIPY-GDP Exchange TR-FRET (Example 501; 3 nM KRAS WT, 3 nM SOS1, 60-minute incubation)
Summary of the method: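 SOS1-mediated exchange assay: 3 nM biotin-KRAS WT with terbium-streptavidin, started with 3 nM SOS1 and 300 nM BODIPY-GDP, HEPES pH 7.5 with MgCl2. TR-FRET (520/490 nm) read after 60 min; normalized to DMSO and full-inhibition control, IC50 from 4-parameter Hill fit.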

[1] = read-out: KRas(wt) GDP HTRF IC50

KRAS G12D, sequence (P01116-2 other isoform, or with tags, fused parts or gaps G12D): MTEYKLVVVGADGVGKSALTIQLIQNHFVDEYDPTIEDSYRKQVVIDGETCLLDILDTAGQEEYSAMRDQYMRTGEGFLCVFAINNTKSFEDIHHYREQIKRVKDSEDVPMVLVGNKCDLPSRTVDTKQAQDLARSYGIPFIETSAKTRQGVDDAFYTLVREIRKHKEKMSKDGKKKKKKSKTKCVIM
KRAS WT, sequence (P01116-2 other isoform, or with tags, fused parts or gaps): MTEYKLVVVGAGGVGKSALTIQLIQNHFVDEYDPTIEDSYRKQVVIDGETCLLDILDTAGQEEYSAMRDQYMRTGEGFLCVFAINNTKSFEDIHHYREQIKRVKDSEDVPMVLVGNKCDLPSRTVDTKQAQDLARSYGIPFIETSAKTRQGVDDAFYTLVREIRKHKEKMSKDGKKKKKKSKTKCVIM

| SMILES | IC50 (KRAS G12D) [nM] | IC50 (KRAS WT; [1]) [nM] | IC50 (KRAS WT; read-out: KRas HTRF IC50) [nM] |
| --- | --- | --- | --- |
| C[C@@H]1Oc2nc(-c3cccc(N)c3F)c(F)c3nc(OC[C@@]45CCCN4C[C@H](F)C5)nc(c23)N2C[C@H]3CC[C@H](N3)[C@@H]12 [Compound 12, 2-fluoro-3-((5S,5aS,6S,9R)-1-fluoro-12-(((2R,7aS)-2-fluorotetrahydro-1H-pyrrolizin-7a(5H)-yl)methoxy)-5-methyl-5a,6,7,8,9,10-hexahydro-5H-4-oxa-3,10a,11,13,14-pentaaza-6,9-methanonaphtho[1,8-ab]heptalen-2-yl)aniline] | 379 | 37400 |  |
| Cc1c(F)ccc(-c2nc3c4c(nc(OC[C@@]56CCCN5C[C@H](F)C6)nc4c2F)N2C[C@H]4CC[C@H](N4)[C@H]2[C@H](C)O3)c1C(F)(F)F [Compound 203, (5S,5aS,6S,9R)-1-fluoro-2-(4-fluoro-3-methyl-2-(trifluoromethyl)phenyl)-12-(((2R,7aS)-2-fluorotetrahydro-1H-pyrrolizin-7a(5H)-yl)methoxy)-5-methyl-5a,6,7,8,9,10-hexahydro-5H-4-oxa-3,10a,11,13,14-pentaaza-6,9-methanonaphtho[1,8-ab]heptalene] | 26.8 |  | 1590 |
| Cc1nc(N)cc(-c2nc3c4c(nc(OC[C@@H]5CC[C@H]6COCCN65)nc4c2F)N2C[C@H]4CC[C@H](N4)[C@H]2[C@H](C(F)(F)F)O3)c1C(F)(F)F [Compound 253, 4-((5R,5aS,6S,9R)-1-Fluoro-12-(((6S,8aS)-hexahydro-1H-pyrrolo[2,1-c][1,4]oxazin-6-yl)methoxy)-5-(trifluoromethyl)-5a,6,7,8,9,10-hexahydro-5H-4-oxa-3,10a,11,13,14-pentaaza-6,9-methanonaphtho[1,8-ab]heptalene-2-yl)-6-methyl-5-(trifluoromethyl)pyridin-2-amine] | 1.03 |  | 37.1 |
| Cc1nc(N)cc(-c2nc3c4c(nc(OCC56CCCN5CC(F)C6)nc4c2F)N2CC4CCC(N4)[C@H]2[C@@H](C(F)(F)F)O3)c1C(F)(F)F (stereo in doubt) [Compound 243, 4-((6R,9S)-1-fluoro-12-(((2S,7aR)-2-fluorotetrahydro-1H-pyrrolizin-7a(5H)-yl)methoxy)-5-(trifluoromethyl)-5a,6,7,8,9,10-hexahydro-5H-4-oxa-3,10a,11,13,14-pentaaza-6,9-methanonaphtho[1,8-ab]heptalene-2-yl)-6-methyl-5-(trifluoromethyl)pyridin-2-amine] | 581 |  | 3960 |
| Cc1nc(N)cc(-c2nc3c4c(nc(OCC5(CN6CC7CC(F)(F)C7C6)CC5)nc4c2F)N2C[C@H]4CC[C@H](N4)[C@H]2[C@H](C)O3)c1C(F)(F)F (mixture of isomers) [Compound 264, 4-((5S,5aS,6S,9R)-12-((1-((6,6-difluoro-3-azabicyclo[3.2.0]heptan-3-yl)methyl)cyclopropyl)methoxy)-1-fluoro-5-methyl-5a,6,7,8,9,10-hexahydro-5H-4-oxa-3,10a,11,13,14-pentaaza-6,9-methanonaphtho[1,8-ab]heptalene-2-yl)-6-methyl-5-(trifluoromethyl)pyridin-2-amine] | 0.33 |  | 19.2 |
| Cc1nc(N)cc(-c2nc3c4c(nc(OCC5(CN6C7CCC6COC7)CC5)nc4c2F)N2C[C@H]4CC[C@H](N4)[C@H]2[C@H](C)O3)c1C(F)(F)F [Compound 206, 4-((5S,5aS,6S,9R)-12-((1-((3-Oxa-8-azabicyclo[3.2.1]octan-8-yl)methyl)cyclopropyl)methoxy)-1-fluoro-5-methyl-5a,6,7,8,9,10-hexahydro-5H-4-oxa-3,10a,11,13,14-pentaaza-6,9-methanonaphtho[1,8-ab]heptalene-2-yl)-6-methyl-5-(trifluoromethyl)pyridin-2-amine] | 0.17 |  | 24.2 |
| Cc1c(F)c(N)c(F)c(-c2nc3c4c(nc(OC[C@@]56CCCN5C[C@H](F)C6)nc4c2F)N2C[C@H]4CC[C@H](N4)[C@H]2[C@H](C)O3)c1I [Compound 204, 2,6-Difluoro-3-((5S,5aS,6S,9R)-1-fluoro-12-(((2R,7aS)-2-fluorotetrahydro-1H-pyrrolizin-7a(5H)-yl)methoxy)-5-methyl-5a,6,7,8,9,10-hexahydro-5H-4-oxa-3,10a,11,13,14-pentaaza-6,9-methanonaphtho[1,8-ab]heptalen-2-yl)-4-iodo-5-methylaniline] | 0.385 |  | 69.1 |
| Cc1c(F)c(O)cc(-c2nc3c4c(nc(OC[C@@]56CCCN5C[C@H](F)C6)nc4c2F)N2C[C@H]4CC[C@H](N4)[C@H]2[C@H](C)O3)c1C(F)(F)F [Compound 202, 2-Fluoro-5-((5S,5aS,6S,9R)-1-fluoro-12-(((2R,7aS)-2-fluorotetrahydro-1H-pyrrolizin-7a(5H)-yl)methoxy)-5-methyl-5a,6,7,8,9,10-hexahydro-5H-4-oxa-3,10a,11,13,14-pentaaza-6,9-methanonaphtho[1,8-ab]heptalen-2-yl)-3-methyl-4-(trifluoromethyl)phenol] | 1.98 |  | 214 |
| Cc1nc(N)cc(-c2nc3c4c(nc(OCC5(CN6CC7COCC7C6)CC5)nc4c2F)N2C[C@H]4CC[C@H](N4)[C@H]2[C@H](C)O3)c1C(F)(F)F (stereo partly drawn) [Compound 205, 4-((5S,5aS,6S,9R)-1-Fluoro-5-methyl-12-((1-((tetrahydro-1H-furo[3,4-c]pyrrol-5(3H)-yl)methyl)cyclopropyl)methoxy)-5a,6,7,8,9,10-hexahydro-5H-4-oxa-3,10a,11,13,14-pentaaza-6,9-methanonaphtho[1,8-ab]heptalen-2-yl)-6-methyl-5-(trifluoromethyl)pyridin-2-amine] | 3.39 |  | 8.61 |
| C#Cc1cccc2cc(O)cc(-c3nc4c5c(nc(OC[C@@]67CCCN6C[C@H](F)C7)nc5c3F)N3C[C@H]5CC[C@H](CN5CCCF)[C@H]3CO4)c12 [Compound 50, 5-Ethynyl-4-((5aS,6R,9R)-1-fluoro-14-(3-fluoropropyl)-12-(((2R,7aS)-2-fluorotetrahydro-1H-pyrrolizin-7a(5H)-yl)methoxy)-5a,6,7,8,9,10-hexahydro-5H-4-oxa-3,10a,11,13,14-pentaaza-6,9-ethanonaphtho[1,8-ab]heptalen-2-yl)naphthalen-2-ol] | 0.24 | 1.69 |  |
| C[C@@H]1Oc2nc(-c3cc(N)nc(C(F)F)c3C(F)(F)F)c(F)c3nc(OC[C@@]45CCCN4C[C@H](F)C5)nc(c23)N2C[C@H]3CC[C@H](N3)[C@@H]12 [Compound 260, 6-(Difluoromethyl)-4-((5S,5aS,6S,9R)-1-fluoro-12-(((2R,7aS)-2-fluorotetrahydro-1H-pyrrolizin-7a(5H)-yl)methoxy)-5-methyl-5a,6,7,8,9,10-hexahydro-5H-4-oxa-3,10a,11,13,14-pentaaza-6,9-methanonaphtho[1,8-ab]heptalen-2-yl)-5-(trifluoromethyl)pyridin-2-amine] | 0.28 |  | 26.2 |
| Cc1nc(N)c(F)c(-c2nc3c4c(nc(OCC5(CN6C[C@@H]7C[C@H]6CO7)CC5)nc4c2F)N2C[C@H]4CC[C@H](N4)[C@H]2[C@H](C)O3)c1C(F)(F)F [Compound 222, 4-((5S,5aS,6S,9R)-12-((1-(((1S,4S)-2-Oxa-5-azabicyclo[2.2.1]heptan-5-yl)methyl)cyclopropyl)methoxy)-1-fluoro-5-methyl-5a,6,7,8,9,10-hexahydro-5H-4-oxa-3,10a,11,13,14-pentaaza-6,9-methanonaphtho[1,8-ab]heptalene-2-yl)-3-fluoro-6-methyl-5-(trifluoromethyl)pyridin-2-amine] | 3.39 |  | 45.7 |
